From patent US10647694B2, “Diphenylaminopyrimidine and triazine compound, and pharmaceutical composition and use thereof” (ARROMAX PHARMATECH CO., LTD., priority 2016, dated 2020)

These molecules were tested against ALK enzyme (Homo sapiens, UniProt Q9UM73) (assay: In-vitro ALK kinase inhibitory activity (HTRF kinEASE TK kit)). Conditions: inhibitory activity for ALK enzyme, read-out: IC50 range.
Format: biochemical
Procedure: Anaplastic Lymphoma Kinase (ALK) Inhibitory Activity The in-vitro kinase assay was performed using the HTRF kinEASE TK kit available from Cisbio. The operation steps are indicated in the instructions of the kit. This method was used to detect the inhibitory effect of the compound to be tested on the activity of ALK enzymes in vitro, including wild-type ALK (Cat.PV3867, Invitrogen), ALK L1196M (Cat. PV6168, Life technologies), and ALK F1174L (Cat. PV6160, Life technologies). The specific operation steps were as follows. […] In addition to the control wells, 4 μL of the diluted compound solution to be tested was added to the reaction wells, and 4 μL of the 2.5% DMSO solution corresponding to the ALK enzyme previously formulated was added to the control wells. (2) 2 μL of a TK-biotin substrate solution previously formulated in a substrate concentration corresponding to the ALK enzyme was added to all reaction wells. (3) 2 μL of a previously prepared enzyme solution of corresponding concentration was added to all the reaction wells except the negative wells, and 2 μL of the 1× kinase buffer corresponding to the enzyme was added to the negative wells to make up the volume. The plate was sealed with a membrane, and incubated for 10 min at room temperature after mixing uniformly, such that the compounds were bond to the enzyme fully. (4) 2 μL of an ATP solution in a concentration corresponding to the ALK enzyme was added to all the reaction wells to initiate the kinase reaction, where the enzyme reaction time by ALK was 60 minutes. (5) An ALK test solution was prepared 5 minutes before the end of the kinase reaction. Streptavidin-XL665 and TK antibody europium cryptate (1:100) solutions for assay having a concentration corresponding to the enzyme were prepared using the detection buffer in the kit. (6) After the completion of the kinase reaction, 5 μl of diluted Streptavidin-XL665 was added to all the reaction wells respectively, and mixed uniformly, and then the diluted TK antibody europium cryptate solution for assay was added immediately. (7) The plate was sealed, mixed uniformly and allowed to react at room temperature for 1 h. The fluorescence signal (excitation at 320 nm, and emission at 665 nm and 615 nm) was detected using the ENVISION instrument (Perkinelmer). The inhibition rate for each well was calculated from the values of the fully active wells and the background signal wells. The values of replicated wells were averaged, and the half-maximal inhibitory activity (IC50) of each compound to be tested was fitted with a professional drawing analysis software PRISM 5.0.

Sequence of ALK enzyme (Q9UM73 19-1620 limits assumed): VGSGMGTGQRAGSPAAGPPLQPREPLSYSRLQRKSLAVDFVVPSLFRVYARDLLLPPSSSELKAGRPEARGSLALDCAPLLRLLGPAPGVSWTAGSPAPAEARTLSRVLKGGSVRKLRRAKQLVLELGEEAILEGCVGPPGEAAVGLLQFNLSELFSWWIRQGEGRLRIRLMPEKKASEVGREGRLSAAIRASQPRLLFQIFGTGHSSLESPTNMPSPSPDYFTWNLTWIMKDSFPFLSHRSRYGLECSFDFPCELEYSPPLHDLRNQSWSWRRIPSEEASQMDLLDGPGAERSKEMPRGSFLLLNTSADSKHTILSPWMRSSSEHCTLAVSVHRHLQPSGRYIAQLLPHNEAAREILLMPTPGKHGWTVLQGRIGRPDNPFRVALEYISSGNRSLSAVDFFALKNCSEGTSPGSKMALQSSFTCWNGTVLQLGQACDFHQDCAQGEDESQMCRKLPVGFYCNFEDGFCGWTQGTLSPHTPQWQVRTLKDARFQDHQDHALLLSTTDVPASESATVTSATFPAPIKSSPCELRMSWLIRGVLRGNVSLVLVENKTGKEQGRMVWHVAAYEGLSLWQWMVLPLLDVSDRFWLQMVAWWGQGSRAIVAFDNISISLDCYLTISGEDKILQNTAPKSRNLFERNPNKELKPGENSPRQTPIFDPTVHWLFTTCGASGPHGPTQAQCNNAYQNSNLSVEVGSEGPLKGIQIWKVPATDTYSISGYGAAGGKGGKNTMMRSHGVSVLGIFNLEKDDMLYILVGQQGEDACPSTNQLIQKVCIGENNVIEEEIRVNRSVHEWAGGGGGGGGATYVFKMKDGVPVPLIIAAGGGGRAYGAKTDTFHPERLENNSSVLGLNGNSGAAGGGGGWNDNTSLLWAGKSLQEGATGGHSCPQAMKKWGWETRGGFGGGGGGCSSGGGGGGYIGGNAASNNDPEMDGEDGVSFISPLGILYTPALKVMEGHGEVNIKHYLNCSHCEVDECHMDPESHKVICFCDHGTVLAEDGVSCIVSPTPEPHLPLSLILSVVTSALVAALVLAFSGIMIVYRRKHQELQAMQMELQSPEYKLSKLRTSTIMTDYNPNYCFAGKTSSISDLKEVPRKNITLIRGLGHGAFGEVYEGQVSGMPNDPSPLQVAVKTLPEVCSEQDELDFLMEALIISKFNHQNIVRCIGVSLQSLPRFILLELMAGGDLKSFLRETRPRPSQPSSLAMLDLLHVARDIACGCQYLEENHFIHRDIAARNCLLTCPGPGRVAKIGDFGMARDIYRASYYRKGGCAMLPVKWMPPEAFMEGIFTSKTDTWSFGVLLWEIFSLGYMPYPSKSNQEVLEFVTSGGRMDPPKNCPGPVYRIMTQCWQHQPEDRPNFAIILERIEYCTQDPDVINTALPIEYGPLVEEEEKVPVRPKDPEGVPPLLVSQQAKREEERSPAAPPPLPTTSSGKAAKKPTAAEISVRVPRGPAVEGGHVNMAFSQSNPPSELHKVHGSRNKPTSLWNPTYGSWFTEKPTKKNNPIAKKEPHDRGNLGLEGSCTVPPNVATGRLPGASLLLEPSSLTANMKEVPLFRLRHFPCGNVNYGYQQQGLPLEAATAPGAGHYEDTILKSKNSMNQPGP

SMILES | IC50 [nM]
CCc1cc(Nc2ncc(Cl)c(Nc3ccccc3S(=O)(=O)C(C)C)n2)c(OC)cc1C1CCNCC1 [Compound 44, reference compound] | 10 to 100
COc1cc(C2CCNCC2)c(C)cc1Nc1ncc(Cl)c(Nc2ccccc2S(=O)(=O)C(C)C)n1 [Compound 45, reference compound] | 10 to 100
COc1cc(C2CCNCC2)c(C)cc1Nc1nccc(Nc2ccccc2S(=O)(=O)C(C)C)n1 [Compound I-1, N4-(2-(isopropylsulfonyl)phenyl)-N2-(2-D3-methoxy-5-methyl-4-(piperidin-4-yl)phenyl)pyrimidin-2,4-diamine] | 1 to 10
COc1cc(C2CCNCC2)c(C)cc1Nc1ncc(F)c(Nc2ccccc2S(=O)(=O)C(C)C)n1 [Compound I-2, 5-fluoro-N4-(2-(isopropylsulfonyl)phenyl)-N2-(2-D3-methoxy-5-methyl-4-(piperidin-4-yl)phenyl)pyrimidin-2,4-diamine] | 1 to 10
COc1cc(C2CCNCC2)c(C)cc1Nc1ncc(Br)c(Nc2ccccc2S(=O)(=O)C(C)C)n1 [Compound I-4, 5-bromo-N4-(2-(isopropylsulfonyl)phenyl)-N2-(2-D3-methoxy-5-methyl-4-(piperidin-4-yl)phenyl)pyrimidin-2,4-diamine] | 1 to 10
[2H]C([2H])([2H])Oc1cc(C2CCNCC2)c(C)cc1Nc1ncc(C(F)(F)F)c(Nc2ccccc2S(=O)(=O)C(C)C)n1 [Compound I-5, N4-(2-(isopropylsulfonyl)phenyl)-N2-(2-methoxy-5-methyl-4-(piperidin-4-yl)phenyl)-5-(trifluoromethyl)pyrimidin-2,4-diamine] | 1 to 10
COc1cc(C2CCNCC2)c(C)cc1Nc1ncc(C#N)c(Nc2ccccc2S(=O)(=O)C(C)C)n1 [Compound I-6] | 1 to 10
COc1cc(C2CCNCC2)c(C)cc1Nc1ncc(OC)c(Nc2ccccc2S(=O)(=O)C(C)C)n1 [Compound I-7, N4-(2-(isopropylsulfonyl)phenyl)-5-methoxy-N2-(2-D3-methoxy-5-methyl-4-(piperidin-4-yl)phenyl)pyrimidin-2,4-diamine] | 1 to 10
COc1cc(C2CCNCC2)c(C)cc1Nc1ncc(C)c(Nc2ccccc2S(=O)(=O)C(C)C)n1 [Compound I-8, N4-(2-(isopropylsulfonyl)phenyl)-N2-(2-D3-methoxy-5-methyl-4-(piperidin-4-yl)phenyl)-5-methylpyrimidin-2,4-diamine] | 1 to 10
CCc1cnc(Nc2cc(C)c(C3CCNCC3)cc2OC)nc1Nc1ccccc1S(=O)(=O)C(C)C [Compound I-9, 5-ethyl-N4-(2-(isopropylsulfonyl)phenyl)-N2-(2-D3-methoxy-5-methyl-4-(piperidin-4-yl)phenyl)pyrimidin-2,4-diamine] | 1 to 10
COc1cc(C2CCNCC2)c(C)cc1Nc1ncc([N+](=O)[O-])c(Nc2ccccc2S(=O)(=O)C(C)C)n1 [Compound I-10, N4-(2-(isopropylsulfonyl)phenyl)-N2-(2-D3-methoxy-5-methyl-4-(piperidin-4-yl)phenyl)-5-nitropyrimidin-2,4-diamine] | 1 to 10
COc1cc(C2CCNCC2)c(C)cc1Nc1ncc(-c2ccccc2)c(Nc2ccccc2S(=O)(=O)C(C)C)n1 [Compound I-11, N4-(2-(isopropylsulfonyl)phenyl)-N2-(2-D3-methoxy-5-methyl-4-(piperidin-4-yl)phenyl)-5-phenylpyrimidin-2,4-diamine] | 10 to 100
C=Cc1cnc(Nc2cc(C)c(C3CCNCC3)cc2OC)nc1Nc1ccccc1S(=O)(=O)C(C)C [Compound I-12, N4-(2-(isopropylsulfonyl)phenyl)-N2-(2-D3-methoxy-5-methyl-4-(piperidin-4-yl)phenyl)-5-ethenylpyrimidin-2,4-diamine] | 1 to 10
C#Cc1cnc(Nc2cc(C)c(C3CCNCC3)cc2OC)nc1Nc1ccccc1S(=O)(=O)C(C)C [Compound I-13, 5-ethynyl-N4-(2-(isopropylsulfonyl)phenyl)-N2-(2-D3-methoxy-5-methyl-4-(piperidin-4-yl)phenyl)pyrimidin-2,4-diamine] | 1 to 10
COc1cc(C2CCNCC2)ccc1Nc1ncc(Cl)c(Nc2ccccc2S(=O)(=O)C(C)C)n1 [Compound I-15, 5-chloro-N2-(2-D3-methoxy-4-(piperidin-4-yl)phenyl)-N4-(2-(isopropylsulfonyl)phenyl)pyrimidin-2,4-diamine] | 1 to 10
COc1cc(N2CCNCC2)c(C)cc1Nc1ncc(Cl)c(Nc2ccccc2S(=O)(=O)C(C)C)n1 [Compound I-17, 5-chloro-N4-(2-(isopropylsulfonyl)phenyl)-N2-(2-D3-methoxy-4-(piperazin-1-yl)-5-methyl-phenyl)pyrimidin-2,4-diamine] | 1 to 10
COc1cc(C2CCNCC2)c(Cl)cc1Nc1ncc(Cl)c(Nc2ccccc2S(=O)(=O)C(C)C)n1 [Compound I-18, 5-chloro-N2-(5-chloro-2-D3-methoxy-4-(piperidin-4-yl)phenyl)-N4-(2-(isopropylsulfonyl)phenyl)pyrimidin-2,4-diamine] | 1 to 10
CCOc1cc(C2CCNCC2)c(Cl)cc1Nc1ncc(Cl)c(Nc2ccccc2S(=O)(=O)C(C)C)n1 [Compound I-19, 5-chloro-N2-(5-chloro-2-D5-ethoxy-4-(piperidin-4-yl)phenyl)-N4-(2-(isopropylsulfonyl)phenyl)pyrimidin-2,4-diamine] | 1 to 10
CCOc1cc(C2CCNCC2)ccc1Nc1ncc(Cl)c(Nc2ccccc2S(=O)(=O)C(C)C)n1 [Compound I-20, 5-chloro-N2-(2-D5-ethoxy-4-(piperidin-4-yl)phenyl)-N4-(2-(isopropylsulfonyl)phenyl)pyrimidin-2,4-diamine] | 1 to 10
COc1cc(C2CCNCC2)c(F)cc1Nc1ncc(Cl)c(Nc2ccccc2S(=O)(=O)C(C)C)n1 [Compound I-21, 5-chloro-N2-(5-fluoro-2-D3-methoxy-4-(piperidin-4-yl)phenyl)-N4-(2-(isopropylsulfonyl)phenyl)pyrimidin-2,4-diamine] | 1 to 10
COc1cc(C2CCNCC2)c(C(F)(F)F)cc1Nc1ncc(Cl)c(Nc2ccccc2S(=O)(=O)C(C)C)n1 [Compound I-22, 5-chloro-N4-(2-(isopropylsulfonyl)phenyl)-N2-(2-D3-methoxy-4-(piperidin-4-yl)-5-(trifluoromethyl)phenyl)pyrimidin-2,4-diamine] | 1 to 10
COc1cc(C2CCNCC2)c(C#N)cc1Nc1ncc(Cl)c(Nc2ccccc2S(=O)(=O)C(C)C)n1 [Compound I-23, 5-((5-chloro-4-((2-(isopropylsulfonyl)phenyl)amino)pyrimidin-2-yl)amino)-4-D3-methoxy-2-(piperidin-4-yl)benzonitrile] | 1 to 10
COc1cc(N2CCC(N3CCN(C)CC3)CC2)ccc1Nc1nc(Nc2ccccc2S(=O)(=O)C(C)C)c2cc[nH]c2n1 [Compound I-24] | 10 to 100
COc1cc(N2CCC(N3CCN(C)CC3)CC2)ccc1Nc1nc(Nc2ccccc2S(=O)(=O)C(C)C)c2[nH]ccc2n1 [Compound I-25] | 10 to 100
COc1cc(N2CCC(N(C)C)CC2)ccc1Nc1nc(Nc2ccccc2S(=O)(=O)C(C)C)c2ccsc2n1 [Compound I-26, N2-(4-(4-(dimethylamino)piperidin-1-yl)-2-D3-methoxyphenyl)-N4-(2-(isopropylsulfonyl)phenyl)thieno[2,3-d]pyrimidin-2,4-diamine] | 10 to 100
COc1cc(N2CCC(N(C)C)CC2)ccc1Nc1nc(Nc2ccccc2S(=O)(=O)C(C)C)c2sccc2n1 [Compound I-27, N2-(4-(4-(dimethylamino)piperidin-1-yl)-2-D3-methoxyphenyl)-N4-(2-(isopropylsulfonyl)phenyl)thieno[3,2-d]pyrimidin-2,4-diamine] | 10 to 100
COc1cc(N2CCC(N3CCOCC3)CC2)ccc1Nc1nc(Nc2ccccc2S(=O)(=O)C(C)C)c2ccccc2n1 [Compound I-28, N4-(2-(isopropylsulfonyl)phenyl)-N2-(2-D3-methoxy-4-(4-morpholinopiperidin-1-yl)phenyl)quinazolin-2,4-diamine] | 10 to 100
COc1cc(C2CCNCC2)c(C)cc1Nc1nc(Nc2ccccc2S(=O)(=O)C(C)C)c2ccccc2n1 [Compound I-29, N4-(2-(isopropylsulfonyl)phenyl)-N2-(2-D3-methoxy-5-methyl-4-(piperidin-4-yl)phenyl)quinazolin-2,4-diamine] | 10 to 100
COc1cc(C2CCNCC2)c(C)cc1Nc1nc(Nc2ccccc2S(=O)(=O)C(C)C)c2cc[nH]c2n1 [Compound I-30, N4-(2-(isopropylsulfonyl)phenyl)-N2-(2-D3-methoxy-5-methyl-4-(piperidin-4-yl)phenyl)-7H-pyrrolo[2,3-d]pyrimidin-2,4-diamine] | 10 to 100
